{"source": "patent US10758511B2", "about": "“Stable analogs of CYP450 lipid metabolites and inhibitors of soluble epoxide hydrolase” (Massachusetts Eye and Ear Infirmary, priority 2015, dated 2020)", "key": {"[1]": {"test": "Formulations of selected inhibitors of sEH (mg/mL)", "type": "physicochemical"}, "C57BL/6 mice": {"tested_on": "C57BL/6 mice", "test": "Laser-induced CNV model (flat-mount, SD-OCT, fluorescein angiography)", "type": "in vivo, mouse", "conditions": "for CNV size or severity compared to base line controls: EETs once a day after laser photocoagulation", "from_the_text": "J Med Chem 54(12):4109-4118)."}, "[2]": {"tested_on": "peripheral blood leukocytes (PBLs)", "test": "Autoperfused microflow chamber assay, leukocyte rolling velocity", "type": "in vivo, mouse", "conditions": "chamber coated with ICAM-1 and P-selectin, 50 μg/kg/day i.p., day 3 after CNV induction", "protocol": "A combination of intercellular adhesion molecule 1 (ICAM-1) and P-selectin (R&D Systems), each at a concentration of 5 μg/mL, was used to coat translucent microchambers (0.4×0.04×50 mm, VitroCom) overnight at 4° C. Biocompatible polyester tubing (PE10; Becton Dickinson) was attached to both ends of each microchamber, and the apparatus was subsequently incubated for 1 hour with 0.1% BSA (Sigma-Aldrich) in order to prevent nonspecific leukocyte interaction with the inner surface of the apparatus. The left jugular vein and right carotid artery in an anesthetized mouse were surgically connected to the free ends of both tubes, thus allowing blood to flow from the right carotid artery and into the microchamber (via the inlet tube), and then into the left jugular vein (via the outlet tube) for recirculation. Blood flow rate through the microchamber was controlled via a screw valve on the inlet tube that could change the tube diameter. For continuous blood pressure measurements, three-way connectors were used to embed microtransducers (Harvard Apparatus) before and after the microchamber. Digitizing the analog output from these microtransducers required an A/D converter (ML785 PowerLab/8SP; ADInstruments) linked to a computer running CHART V7 software (ADInstruments). […] A fixed-stage intravital microscope (Leica) with a 63× objective and a monochromic camera (DFC 360 FX; Leica) were used to observe and record leukocyte rolling along immobilized adhesion molecules. Recordings lasted at least 30 s and incorporated ten different fields of view. Using ImageJ software, leukocyte rolling velocity was calculated based on individual cell displacement along the surface of the chamber over time (i.e., Δd/Δt). Flux was calculated as the mean number of leukocytes interacting with the chamber surface per field of view (i.e., average of 10 independent fields of view).\nAutoperfused Microflow Chamber assay was used to assess the impact of 17,18-EEQ and 19,20-EDP on systemic leukocyte recruitment during CNV development. The rolling velocity of peripheral blood leukocytes (PBLs) in the circulating blood was measured 3 days post CNV induction, as this reflects the peak of immune cell infiltration in this model."}, "E-selectin": {"tested_on": "E-selectin", "test": "Real-time PCR of E-selectin mRNA in laser-captured CNV lesions", "type": "in vivo, mouse", "conditions": "50 μg/kg/day i.p., 7 days post CNV induction", "protocol": "Immediately after enucleation, mouse eyes were placed in optimum cutting temperature (OCT) compound and swiftly frozen. Under RNase-free conditions, eyes were cryosectioned (10 μm thickness per section) and mounted on polyethylene naphthalate glass slides (Leica). After dehydrating with washes of 50, 75, and 100% ethanol, the slides were stained with isolectin B4 at a dilution of 1:50 in 1 mM CaCl2. Laser-capture microdissection (Leica LMD 7000 system) was used to isolate chorioretinal vessels in CNV lesions, which were then placed in RNA-stabilizing buffer (RNeasy Micro Kit; Qiagen). […] Real-time PCR was conducted on a StepOne real-time PCR System (Applied Biosystems) with mouse TaqMan expression assays for the following genes (Applied Biosystems): E-selectin (Mm00441278_m1), kam-1 (Mm00516023_m1), and β-actin (Mm00607939_s1). All data were normalized to β-actin cDNA."}, "Rat sEH": {"molecular_target": "T1, Rat sEH (Rattus norvegicus, UniProt P80299)", "T1 sequence (P80299 1-554)": "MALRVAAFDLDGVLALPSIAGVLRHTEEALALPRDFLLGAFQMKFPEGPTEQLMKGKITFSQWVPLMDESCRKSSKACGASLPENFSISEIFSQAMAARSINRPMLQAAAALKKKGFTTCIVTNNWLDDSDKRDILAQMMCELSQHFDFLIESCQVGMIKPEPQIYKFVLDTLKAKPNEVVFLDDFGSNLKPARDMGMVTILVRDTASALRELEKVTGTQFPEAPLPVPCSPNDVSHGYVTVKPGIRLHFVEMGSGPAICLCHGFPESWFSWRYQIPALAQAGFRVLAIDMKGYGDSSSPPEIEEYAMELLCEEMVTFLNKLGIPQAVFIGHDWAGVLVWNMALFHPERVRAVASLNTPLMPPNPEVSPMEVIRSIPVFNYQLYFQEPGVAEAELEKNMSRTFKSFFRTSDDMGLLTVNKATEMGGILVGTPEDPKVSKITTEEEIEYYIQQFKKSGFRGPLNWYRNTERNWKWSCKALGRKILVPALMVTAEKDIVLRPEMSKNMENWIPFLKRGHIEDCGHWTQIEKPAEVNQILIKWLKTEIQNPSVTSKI", "test": "sEH inhibition (IC50), fluorescent substrate CMNPC", "type": "biochemical", "conditions": "CMNPC as a substrate; ureas found in Brassicales"}, "[3]": {"test": "Solubility in sodium phosphate buffer (pH7.4)", "type": "physicochemical", "conditions": "pH 7.4, aqueous buffer, Mean ± SD (n = 3)"}, "Human sEH": {"molecular_target": "T2, Human sEH (Homo sapiens, UniProt P34913)", "T2 sequence (P34913 1-555)": "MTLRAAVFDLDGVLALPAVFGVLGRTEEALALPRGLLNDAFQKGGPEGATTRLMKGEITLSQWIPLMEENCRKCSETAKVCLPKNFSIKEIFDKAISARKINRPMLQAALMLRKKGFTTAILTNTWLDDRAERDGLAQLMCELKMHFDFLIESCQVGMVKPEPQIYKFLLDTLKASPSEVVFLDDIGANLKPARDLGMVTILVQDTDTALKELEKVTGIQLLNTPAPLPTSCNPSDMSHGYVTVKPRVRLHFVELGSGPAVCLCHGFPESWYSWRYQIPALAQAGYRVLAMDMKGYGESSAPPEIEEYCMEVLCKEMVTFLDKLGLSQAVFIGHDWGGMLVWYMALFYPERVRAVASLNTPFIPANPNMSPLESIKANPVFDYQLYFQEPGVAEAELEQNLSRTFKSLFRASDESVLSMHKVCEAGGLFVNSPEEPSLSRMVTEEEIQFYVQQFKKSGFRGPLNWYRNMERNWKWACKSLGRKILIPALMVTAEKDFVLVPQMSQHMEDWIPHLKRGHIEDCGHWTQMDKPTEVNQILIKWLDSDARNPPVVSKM", "test": "sEH inhibition (IC50), fluorescent substrate CMNPC", "type": "biochemical", "conditions": "CMNPC as a substrate; ureas found in Brassicales"}, "[4]": {"conditions": "sodium phosphate buffer (pH7.4); data from Kitamura et al., (2015); cited from earlier work"}, "[5]": {"conditions": "C57BL/6 mice, 7 d after CNV induction"}, "[6]": {"conditions": "C57BL/6 mice, 50 μg/kg/day i.p. once a day, 7 d after CNV induction"}}, "note": "Marks after values point to notes of the source that are not given here.", "data": [{"smiles": "O=C(Nc1ccc(C(F)(F)F)cc1)NC1CCC(Oc2ccc(C(=O)O)cc2)CC1", "note": "(centres unmarked)", "values": [{"measurement": "Formulation (mg/mL) EtOH", "setting": "[1]", "value": 20, "unit": "mg/mL"}, {"measurement": "Formulation (mg/mL) PEG400", "setting": "[1]", "value": 20, "unit": "mg/mL"}, {"measurement": "Formulation (mg/mL) Trioleate", "setting": "[1]", "value": 0.625, "unit": "mg/mL"}]}, {"smiles": "CC(C)C(=O)N1CCC(NC(=O)Nc2ccc(C(F)(F)F)cc2)CC1", "values": [{"measurement": "Formulation (mg/mL) EtOH", "setting": "[1]", "value": 20, "unit": "mg/mL"}, {"measurement": "Formulation (mg/mL) PEG400", "setting": "[1]", "value": 20, "unit": "mg/mL"}, {"measurement": "Formulation (mg/mL) Trioleate", "setting": "[1]", "value": 0.625, "unit": "mg/mL"}]}, {"smiles": "CCCCS(=O)(=O)N1CCC(NC(=O)Nc2ccc(C(F)(F)F)cc2)CC1", "values": [{"measurement": "Formulation (mg/mL) EtOH", "setting": "[1]", "value": 13, "unit": "mg/mL"}, {"measurement": "Formulation (mg/mL) PEG400", "setting": "[1]", "value": 13, "unit": "mg/mL"}, {"measurement": "Formulation (mg/mL) Trioleate", "setting": "[1]", "value": 1.25, "unit": "mg/mL"}]}, {"smiles": "CCCCC/C=C\\C/C=C\\CC1OC1C/C=C\\CCCC(=O)O", "note": "(centres unmarked) [8,9-EET, reference compound]", "values": [{"measurement": "CNV size or severity compared to base line controls", "setting": "C57BL/6 mice; [5]", "value": "do not affect"}, {"measurement": "rolling velocity of PBLs", "setting": "[2]; PBS 2.30±0.13", "value": "1.14±0.15", "unit": "μm/s"}]}, {"smiles": "CCCCC/C=C\\C[C@H]1O[C@H]1C/C=C\\C/C=C\\CCCC(=O)O", "note": "[11,12-EET]", "values": [{"measurement": "CNV size or severity compared to base line controls", "setting": "C57BL/6 mice; [5]", "value": "do not affect"}, {"measurement": "rolling velocity of PBLs", "setting": "[2]; PBS 2.30±0.13", "value": "1.41±0.45", "unit": "μm/s"}, {"measurement": "mRNA level of E-selectin in CNV lesions compared to PBS injected controls", "setting": "E-selectin", "value": "significant increase"}]}, {"smiles": "CCCCCC1OC1C/C=C\\C/C=C\\C/C=C\\CCCC(=O)O", "note": "(centres unmarked) [14,15-EET, reference compound]", "values": [{"measurement": "CNV size or severity compared to base line controls", "setting": "C57BL/6 mice; [5]", "value": "do not affect"}, {"measurement": "rolling velocity of PBLs", "setting": "[2]; PBS 2.30±0.13", "value": "1.41±0.11", "unit": "μm/s"}]}, {"smiles": "CCC1OC1C/C=C\\C/C=C\\C/C=C\\C/C=C\\CCCC(=O)O", "note": "(centres unmarked) [17,18-EEQ, 17,18-epoxyeicosatetraenoic acid]", "values": [{"measurement": "rolling velocity of PBLs", "setting": "[2]; PBS 0.94±0.06", "value": "1.48±0.16", "unit": "μm/s"}]}, {"smiles": "CCC1OC1C/C=C\\C/C=C\\C/C=C\\C/C=C\\C/C=C\\CCC(=O)O", "note": "(centres unmarked) [19,20-EDP]", "values": [{"measurement": "rolling velocity of PBLs", "setting": "[2]; PBS 0.94±0.06", "value": "1.44±0.12", "unit": "μm/s"}]}, {"smiles": "CCOCCOCCOCCCCCNC(=O)NC12CC3CC(CC(C3)C1)C2", "note": "[AEPU]", "values": [{"measurement": "logP", "setting": "physchem", "value": 2.6}]}, {"smiles": "COc1ccc(CNC(=O)NCc2ccccc2)cc1", "note": "[BMU]", "values": [{"measurement": "IC50", "setting": "Rat sEH", "value": 182, "unit": "nM"}, {"measurement": "solubility", "setting": "[3]", "value": "9 ± 4", "unit": "µM"}]}, {"smiles": "O=C(NCc1ccccc1)NCc1ccccc1", "note": "[Compound 1]", "values": [{"measurement": "IC50", "setting": "Rat sEH", "value": 385, "unit": "nM"}, {"measurement": "solubility", "setting": "[3]", "value": "43 ± 5", "unit": "µM"}]}, {"smiles": "COc1cccc(CNC(=O)NCc2ccccc2)c1", "note": "[Compound 2]", "values": [{"measurement": "IC50", "setting": "Rat sEH", "value": 308, "unit": "nM"}, {"measurement": "IC50", "setting": "Human sEH", "value": 534, "unit": "nM"}, {"measurement": "solubility", "setting": "[3]", "value": "77 ± 9", "unit": "µM"}]}, {"smiles": "COc1cccc(CNC(=O)NCc2cccc(OC)c2)c1", "note": "[Compound 3]", "values": [{"measurement": "IC50", "setting": "Rat sEH", "value": 155, "unit": "nM"}, {"measurement": "IC50", "setting": "Human sEH", "value": 222, "unit": "nM"}, {"measurement": "solubility", "setting": "[3]", "value": "101 ± 37", "unit": "µM"}]}, {"smiles": "CNC(=O)C(=O)NCCCC/C=C\\CCCCCCCCCC(=O)O", "note": "[Compound C21, (Z)-16-(2-(methylamino)-2-oxoacetamido)hexadec-11-enoic acid]", "values": [{"measurement": "CNV attenuation compared to EEQ administered alone", "setting": "C57BL/6 mice; C21 intraperitoneally once a day for 7 days, FIGS. 20A-20C", "value": "did not show a significant difference"}, {"measurement": "CNV size in choroidal flat mounts compared to control vehicle", "setting": "C57BL/6 mice; [6]", "value": "significantly reduced"}, {"measurement": "CNV size in cross-sectional SD-OCT compared to control vehicle", "setting": "C57BL/6 mice; [6]", "value": "significantly reduced"}, {"measurement": "vascular leakage in CNV lesions (fluorescein angiography) compared to control vehicle", "setting": "C57BL/6 mice; [6]", "value": "significantly reduced"}]}, {"smiles": "COc1ccc(CNC(=O)NCc2ccc(OC)cc2)cc1", "note": "[MMU]", "values": [{"measurement": "IC50", "setting": "Rat sEH", "value": 218, "unit": "nM"}, {"measurement": "Solubility (μM)", "setting": "[4]", "value": "11 ± 2^c μM"}]}]}
